# Results: ChEMBL document CHEMBL4138123, “Design, synthesis and biological evaluation of novel pyrazolochalcones as potential modulators of PI3K/Akt/mTOR pathway and inducers of apoptosis in breast cancer cells” (Eur J Med Chem, 2017)
# Legend:
# Type in all cases: functional
# [1] = tested on: NCI-H226; experiment: Cytotoxicity against human NCI-H226 cells assessed as growth inhibition after 48 hrs by sulforhodamine B assay; settings: NCI-H226, 48 h
# [2] = tested on: SK-OV-3; experiment: Cytotoxicity against human SKOV3 cells assessed as cell growth at 0.1 uM after 48 hrs by sulforhodamine B assay relative to control; settings: SK-OV-3, 48 h, read-out: Activity
# [3] = tested on: HCT-116; experiment: Cytotoxicity against human HCT116 cells assessed as cell growth at 0.1 uM after 48 hrs by sulforhodamine B assay relative to control; settings: HCT-116, 48 h, read-out: Activity
# [4] = tested on: 786-0; experiment: Cytotoxicity against human 786-0 cells assessed as cell growth at 10 uM after 48 hrs by sulforhodamine B assay relative to control; settings: 786-0, 48 h, read-out: Activity
# [5] = tested on: OVCAR-4; experiment: Cytotoxicity against human OVCAR4 cells assessed as growth inhibition after 48 hrs by sulforhodamine B assay; settings: OVCAR-4, 48 h
# [6] = tested on: HCT-116; experiment: Cytotoxicity against human HCT116 cells assessed as growth inhibition after 48 hrs by sulforhodamine B assay; settings: HCT-116, 48 h
# [7] = tested on: DU-145; experiment: Cytotoxicity against human DU145 cells assessed as growth inhibition after 48 hrs by sulforhodamine B assay; settings: DU-145, 48 h; for CC50: read-out: LC50 (the source's name)
# [8] = tested on: SF-268; experiment: Cytotoxicity against human SF268 cells assessed as growth inhibition after 48 hrs by sulforhodamine B assay; settings: SF-268, 48 h; for CC50: read-out: LC50 (the source's name)
# [9] = tested on: MDA-MB-468; experiment: Cytotoxicity against human MDA-MB-468 cells assessed as cell growth at 100 uM after 48 hrs by sulforhodamine B assay relative to control; settings: MDA-MB-468, 48 h, read-out: Activity
# [10] = tested on: Hs-578T; experiment: Cytotoxicity against human Hs 578T cells assessed as cell growth at 0.1 uM after 48 hrs by sulforhodamine B assay relative to control; settings: read-out: Activity
# [11] = tested on: SK-MEL-28; experiment: Cytotoxicity against human SK-MEL-28 cells assessed as cell growth at 10 uM after 48 hrs by sulforhodamine B assay relative to control; settings: SK-MEL-28, 48 h, read-out: Activity
# [12] = tested on: NCI-H460; experiment: Cytotoxicity against human NCI-H460 cells assessed as cell growth at 1 uM after 48 hrs by sulforhodamine B assay relative to control; settings: NCI-H460, 48 h, read-out: Activity
# [13] = tested on: HCT-15; experiment: Cytotoxicity against human HCT15 cells assessed as cell growth at 0.01 uM after 48 hrs by sulforhodamine B assay relative to control; settings: HCT-15, 48 h, read-out: Activity
# [14] = tested on: DU-145; experiment: Cytotoxicity against human DU145 cells assessed as cell growth at 1 uM after 48 hrs by sulforhodamine B assay relative to control; settings: DU-145, 48 h, read-out: Activity
# [15] = tested on: NCI/ADR-RES; experiment: Cytotoxicity against human NCI/ADR-RES cells assessed as cell growth at 100 uM after 48 hrs by sulforhodamine B assay relative to control; settings: read-out: Activity
# [16] = tested on: SR; experiment: Cytotoxicity against human SR cells assessed as cell growth at 10 uM after 48 hrs by sulforhodamine B assay relative to control; settings: read-out: Activity
# [17] = tested on: HOP-62; experiment: Cytotoxicity against human HOP62 cells assessed as cell growth at 1 uM after 48 hrs by sulforhodamine B assay relative to control; settings: HOP-62, 48 h, read-out: Activity
# [18] = tested on: SNB-19; experiment: Cytotoxicity against human SNB19 cells assessed as cell growth at 100 uM after 48 hrs by sulforhodamine B assay relative to control; settings: SNB-19, 48 h, read-out: Activity
# [19] = tested on: TK-10; experiment: Cytotoxicity against human TK10 cells assessed as cell growth at 1 uM after 48 hrs by sulforhodamine B assay relative to control; settings: TK-10, 48 h, read-out: Activity
# [20] = tested on: A498; experiment: Cytotoxicity against human A498 cells assessed as cell growth at 1 uM after 48 hrs by sulforhodamine B assay relative to control; settings: A498, 48 h, read-out: Activity
# [21] = tested on: TK-10; experiment: Cytotoxicity against human TK10 cells assessed as growth inhibition after 48 hrs by sulforhodamine B assay; settings: TK-10, 48 h
# [22] = tested on: NCI/ADR-RES; experiment: Cytotoxicity against human NCI/ADR-RES cells assessed as cell growth at 0.1 uM after 48 hrs by sulforhodamine B assay relative to control; settings: read-out: Activity
# [23] = tested on: MDA-MB-231; experiment: Cytotoxicity against human MDA-MB-231 cells assessed as cell growth at 0.1 uM after 48 hrs by sulforhodamine B assay relative to control; settings: MDA-MB-231, 48 h, read-out: Activity
# [24] = tested on: A549; experiment: Cytotoxicity against human A549/ATCC cells assessed as growth inhibition after 48 hrs by sulforhodamine B assay; settings: A549, 48 h
# [25] = tested on: DU-145; experiment: Cytotoxicity against human DU145 cells assessed as cell growth at 10 uM after 48 hrs by sulforhodamine B assay relative to control; settings: DU-145, 48 h, read-out: Activity
# [26] = tested on: CCRF-CEM; experiment: Cytotoxicity against human CCRF-CEM cells assessed as growth inhibition after 48 hrs by sulforhodamine B assay
# [27] = tested on: HCT-15; experiment: Cytotoxicity against human HCT15 cells assessed as growth inhibition after 48 hrs by sulforhodamine B assay; settings: HCT-15, 48 h
# [28] = tested on: NCI-H23; experiment: Cytotoxicity against human NCI-H23 cells assessed as cell growth at 0.01 uM after 48 hrs by sulforhodamine B assay relative to control; settings: NCI-H23, 48 h, read-out: Activity
# [29] = tested on: Hs-578T; experiment: Cytotoxicity against human Hs 578T cells assessed as cell growth at 100 uM after 48 hrs by sulforhodamine B assay relative to control; settings: read-out: Activity
# [30] = tested on: SW-620; experiment: Cytotoxicity against human SW620 cells assessed as growth inhibition after 48 hrs by sulforhodamine B assay; settings: SW-620, 48 h
# [31] = tested on: NCI-H522; experiment: Cytotoxicity against human NCI-H522 cells assessed as growth inhibition after 48 hrs by sulforhodamine B assay; settings: NCI-H522, 48 h
# [32] = tested on: SNB-19; experiment: Cytotoxicity against human SNB19 cells assessed as cell growth at 0.1 uM after 48 hrs by sulforhodamine B assay relative to control; settings: SNB-19, 48 h, read-out: Activity
# [33] = tested on: UACC-62; experiment: Cytotoxicity against human UACC62 cells assessed as cell growth at 1 uM after 48 hrs by sulforhodamine B assay relative to control; settings: UACC-62, 48 h, read-out: Activity
# [34] = tested on: MCF7; experiment: Cytotoxicity against human MCF7 cells assessed as cell growth at 1 uM after 48 hrs by sulforhodamine B assay relative to control; settings: MCF7, 48 h, read-out: Activity
# [35] = tested on: KM12; experiment: Cytotoxicity against human KM12 cells assessed as cell growth at 10 uM after 48 hrs by sulforhodamine B assay relative to control; settings: KM12, 48 h, read-out: Activity
smiles,measurement,setting,value
COc1ccc(-c2cc(/C=C/C(=O)c3ccc(N)cc3)[nH]n2)cc1,GI50,[1],2 µM
same,LC50 (concentration killing 50% of cells),[1],92.1 µM
same,TGI,[1],5.57 µM
same,growth at 0.1 µM,[2],103%
same,growth at 0.1 µM,[3],105%
same,growth at 10 µM,[4],-29%
same,GI50,[5],1.08 µM
same,LC50,[5],51.2 µM
same,TGI,[5],8.01 µM
same,GI50,[6],1.38 µM
same,TGI,[6],3.61 µM
same,GI50,[7],1.32 µM
same,TGI,[7],3.46 µM
same,CC50,[7],9.11 µM
same,GI50,[8],1.81 µM
same,TGI,[8],5.31 µM
same,CC50,[8],45.7 µM
same,growth at 100 µM,[9],-51%
same,growth at 0.1 µM,[10],97%
same,growth at 10 µM,[11],-60%
same,growth at 1 µM,[12],92%
same,growth at 0.01 µM,[13],97%
same,growth at 1 µM,[14],64%
same,growth at 100 µM,[15],-38%
same,growth at 10 µM,[16],-12%
same,growth at 1 µM,[17],102%
same,growth at 100 µM,[18],-80%
same,growth at 1 µM,[19],81%
same,growth at 1 µM,[20],90%
same,GI50,[21],2.81 µM
same,LC50,[21],39.8 µM
same,TGI,[21],13 µM
same,growth at 0.1 µM,[22],99%
same,growth at 0.1 µM,[23],89%
same,GI50,[24],2.55 µM
same,LC50 (concentration giving 50% net cell kill),[24],46.9 µM
same,TGI,[24],10.2 µM
same,growth at 10 µM,[25],-55%
same,GI50,[26],1.32 µM
same,LC50 (concentration killing 50% of cells),[26],36.1 µM
same,TGI,[26],4.91 µM
same,GI50,[27],1 µM
same,LC50,[27],34.9 µM
same,TGI,[27],3.62 µM
same,growth at 0.01 µM,[28],92%
same,growth at 100 µM,[29],-35%
same,GI50,[30],1.69 µM
same,"LC50 (lethal concentration, 50% net cell kill)",[30],56.2 µM
same,TGI,[30],5.41 µM
same,GI50,[31],1.21 µM
same,LC50,[31],7.03 µM
same,TGI,[31],2.91 µM
same,growth at 0.1 µM,[32],89%
same,growth at 1 µM,[33],79%
same,growth at 1 µM,[34],42%
same,growth at 10 µM,[35],-67%
COc1ccc(C(=O)/C=C/c2cc(-c3cc(OC)c(OC)c(OC)c3)n[nH]2)cc1,TGI,[1],4.07 µM
same,growth at 0.1 µM,[2],99%
same,growth at 0.1 µM,[3],102%
same,growth at 10 µM,[4],-59%
same,LC50,[5],> 100 µM
same,TGI,[5],8.32 µM
same,LC50,[6],> 100 µM
same,TGI,[6],5.86 µM
same,TGI,[7],2.83 µM
same,TGI,[8],5.12 µM
same,CC50,[8],> 100 µM
same,growth at 100 µM,[9],-78%
same,growth at 0.1 µM,[10],100%
same,growth at 10 µM,[11],-55%
same,growth at 1 µM,[12],85%
same,growth at 0.01 µM,[13],99%
same,growth at 1 µM,[14],76%
same,growth at 100 µM,[15],-6%
same,growth at 10 µM,[16],3%
same,growth at 1 µM,[17],87%
same,growth at 100 µM,[18],-6%
same,growth at 1 µM,[19],92%
same,growth at 1 µM,[20],84%
same,LC50,[21],> 100 µM
same,TGI,[21],5.77 µM
same,growth at 0.1 µM,[22],97%
same,growth at 0.1 µM,[23],94%
same,LC50 (concentration giving 50% net cell kill),[24],> 100 µM
same,growth at 10 µM,[25],-93%
same,LC50 (concentration killing 50% of cells),[26],> 100 µM
same,TGI,[26],5.85 µM
same,LC50,[27],> 100 µM
same,TGI,[27],4.37 µM
same,growth at 0.01 µM,[28],93%
same,growth at 100 µM,[29],5%
same,TGI,[30],3.47 µM
same,LC50,[31],6.97 µM
same,TGI,[31],3.2 µM
same,growth at 0.1 µM,[32],88%
same,growth at 1 µM,[33],95%
same,growth at 1 µM,[34],57%
same,growth at 10 µM,[35],-88%
COc1ccc(-c2cc(/C=C/C(=O)c3ccc(OC)c(OC)c3)[nH]n2)cc1,GI50,[1],1.54 µM
same,TGI,[1],3.51 µM
same,growth at 0.1 µM,[2],109%
same,growth at 0.1 µM,[3],105%
same,growth at 10 µM,[4],-89%
same,GI50,[5],0.59 µM
same,LC50,[5],28.4 µM
same,TGI,[5],3.87 µM
same,GI50,[6],1.01 µM
same,LC50,[6],6.08 µM
same,TGI,[6],2.48 µM
same,GI50,[7],1.4 µM
same,TGI,[7],2.81 µM
same,CC50,[7],5.64 µM
same,GI50,[8],1.94 µM
same,TGI,[8],4.82 µM
same,CC50,[8],27.3 µM
same,growth at 100 µM,[9],-76%
same,growth at 0.1 µM,[10],92%
same,growth at 10 µM,[11],-95%
same,growth at 1 µM,[12],75%
same,growth at 0.01 µM,[13],95%
same,growth at 1 µM,[14],74%
same,growth at 100 µM,[15],-22%
same,growth at 10 µM,[16],-29%
same,growth at 1 µM,[17],94%
same,growth at 100 µM,[18],-96%
same,growth at 1 µM,[19],103%
same,growth at 1 µM,[20],69%
same,GI50,[21],2.11 µM
same,LC50,[21],8.78 µM
same,TGI,[21],4.31 µM
same,growth at 0.1 µM,[22],107%
same,growth at 0.1 µM,[23],91%
same,GI50,[24],1.88 µM
same,LC50 (concentration giving 50% net cell kill),[24],> 100 µM
same,TGI,[24],5.95 µM
same,growth at 10 µM,[25],-91%
same,GI50,[26],1.34 µM
same,LC50 (concentration killing 50% of cells),[26],> 100 µM
same,TGI,[26],4.14 µM
same,GI50,[27],1.35 µM
same,LC50,[27],9.41 µM
same,TGI,[27],3.56 µM
same,growth at 0.01 µM,[28],100%
same,growth at 100 µM,[29],-26%
same,GI50,[30],1.35 µM
same,"LC50 (lethal concentration, 50% net cell kill)",[30],9.54 µM
same,TGI,[30],3.59 µM
same,GI50,[31],0.41 µM
same,LC50,[31],5.91 µM
same,TGI,[31],1.39 µM
same,growth at 0.1 µM,[32],90%
same,growth at 1 µM,[33],85%
same,growth at 1 µM,[34],27%
same,growth at 10 µM,[35],-72%
